Assay results as given in patent publication EP4332574A1, “SELF-ASSEMBLED CHEMOSENSORS FOR DETECTING POLYAMINES IN PHYSIOLOGICAL MEDIA AND BIOFLUIDS” (Karlsruher Institut für Technologie, priority 2022, dated 2024).

What was measured:
[1] = Host-dye fluorescence titration (quenching of dye emission on stepwise addition of host); format: binding; conditions: for binding affinity (Ka): host-dye binding interaction in surine, fluorescence monitored at 423 nm
Description: Addition of the receptor host molecule to the dye solution results in a quenching of the dye emission upon the formation of the self-assembled P5AS-MDAP host-dye fluorescent chemosensor. Thereby, in the sensing assay, in the presence of polyamines, the dye is displaced from the host cavity resulting in a fluorescence "turn-on" signal. The involved processes show very fast binding kinetics and fast signal responses.

[2] = tested on: P5AS-MDAP host-dye chemosensor; test: Fluorescence turn-on indicator displacement sensing assay with P5AS-MDAP chemosensor in artificial media; format: binding; conditions: for relative fluorescence intensity changes monitored at 423 nm: addition of P5AS-MDAP
Description: Thereby, in the sensing assay, in the presence of polyamines, the dye is displaced from the host cavity resulting in a fluorescence "turn-on" signal.
(§1) Fig. 2 Schematic illustration of established cation exchange reactions in systems wherein the known chemosensors become dysfunctional in biologically relevant media such as PBS or urine. At high salt concentrations, the signalling binding pockets of the receptor host molecule are occupied by salts and are no longer available for the detection of relevant analytes. Moreover, chemosensors self-assembled from a receptor host and dye molecules decompose at high salt concentrations as the dye is pushed out of the receptor by the salts. Fig. 3 • (a) Chemical structure of the preferred host molecule P5AS. • (b) Chemical structure of the preferred dye molecule MDAP. • (c) Chemical structure of the preferred dye molecule BrDAP. […] Fig. 8 Relative fluorescence intensity changes monitored at 433 nm on addition of P5AS-BrDAP chemosensor (21.6 µM) to • (a) human urine samples collected from four healthy individuals (diluted two times) and later spiked with several polyamines and polyamine mixtures (each at 5 µM) in order to simulate urine from diseased patients and • (b) human saliva sample collected from a healthy individual (undiluted) and later spiked with several polyamines and polyamine mixtures (each at 5 µM) in order to simulate saliva from diseased patients (microplate reader assay). […] Fig. 9 Relative fluorescence intensity changes monitored at 423 nm upon addition of • (a) P5AS-MDAP host-dye chemosensor and • (b) P5AS-BrDAP host-dye chemosensor to a solution of spermine (spm, 3.3 µM) in neurobasal™ medium.

[3] = tested on: P5AS-BrDAP host-dye chemosensor; test: Fluorescence turn-on indicator displacement sensing assay with P5AS-BrDAP chemosensor in artificial media; format: binding; conditions: addition of P5AS-BrDAP
P5AS-BrDAP chemosensor = conditions: chemosensor 21.6 µM; human urine (diluted two times) and saliva (undiluted), spiked each at 5 µM
Description: as §1, with “salts.” for “salts. Fig. 3 • (a) Chemical structure of the preferred host molecule P5AS. • (b) Chemical structure of the preferred dye molecule MDAP. • (c) Chemical structure of the preferred dye molecule BrDAP.”

[4] = spermine 3.3 µM in neurobasal medium

| SMILES | binding affinity (Ka) [1] | relative fluorescence intensity changes monitored at 423 nm ([2]; polyamine 3.3 µM in surine) | relative fluorescence intensity changes monitored at 423 nm ([3]; polyamine 3.3 µM in surine) | further results |
| --- | --- | --- | --- | --- |
| BrCCCC[n+]1cc2ccc3c[n+](CCCCBr)cc4ccc(c1)c2c34 [BrDAP, N,N'-bis(4-bromobutyl)-2,7-diazapyrenium dication] | 4.5e+08 M⁻¹ | – | – | stronger binding affinity for P5AS compared to MDAP [1]: 10^2 times; binding affinity towards P5AS ([1]; order of magnitude, Figure 7a experiments in surine): 10^8 M^-1 |
| C[n+]1cc2ccc3c[n+](C)cc4ccc(c1)c2c34 [MDAP, N,N'-dimethyl-2,7-diazapyrenium dication] | 4.9e+06 M⁻¹ | – | – | – |
| NCCCCN [Putrescine, putrescine] | – | does not give rise to any changes in the fluorescence intensity | – | – |
| NCCCCCN [cadaverine] | – | strong fluorescence enhancement | no significant fluorescence signal change | – |
| NCCCCNCCCN [spermidine] | – | strong fluorescence enhancement | no significant fluorescence signal change | – |
| NCCCNCCCCNCCCN [spermine] | – | strong fluorescence enhancement | strong fluorescence enhancement | relative fluorescence intensity changes monitored at 423 nm [2, 4]: strong fluorescence enhancement; time to fluorescence signal turn-on (displacement of MDAP from the host) ([2]; spermine 5.1 µM added to P5AS-MDAP in surine, 423 nm): within a few milliseconds; relative fluorescence intensity changes monitored at 423 nm [3, 4]: strong fluorescence enhancement; relative fluorescence intensity changes monitored at 433 nm, spiked versus healthy samples (P5AS-BrDAP chemosensor): clear distinction between the fluorescence signal outputs |
